Assay results as given in patent US7429482B2, “Screening tools for discovery of novel anabolic agents” (United States of America as represented by the Department …, priority 2005, dated 2008).

Assays:
Format in all cases: in vivo, rat
MAFbx = assay: Chronic denervation: MAFbx mRNA in gastrocnemius (qPCR)
Procedure: (§1) Male Wistar rats weighing 200-250 gm (Taconic Farms, Germantown, N.Y.) were provided food and water ad libitum and were housed in a temperature and humidity controlled environment providing a 12:12 hour day-night cycle. For surgical procedures, animals were anesthetized with ketamine/xylazine. The left sciatic nerve was exposed by blunt dissection, and a 1 to 2 mm piece of this nerve was excised just below the level of the femoral head. A sham surgery was performed on the right hind limb in which the sciatic nerve was exposed but was not transected. Twenty eight days later, animals were anesthetized, and Alzet pumps were implanted subcutaneously on the back. […] Testosterone levels after replacement were approximately 15 nM, a high-normal range for rats of this age. Animals were sacrificed 3, 7 or 28 days after implantation of the miniosmotic pumps by inhalation of carbon dioxide. Gastrocnemius muscles were excised and weighed, then flash frozen on dry ice and stored at −80° C.
(§2) Total RNA was extracted from skeletal muscle (20 mg) by homogenization in guanidine thiocyanate using a Polytron followed by extraction of total RNA with phenol-chloroform as described by (Chomczynski and Sacchi, Anal Biochem 162: 156-159, 1987). Total RNA was further enriched using RNAeasy minicolumns (Qiagen, Valencia, Calif.). This procedure included digestion of contaminating DNA on the column with RNAse-free DNAse (Qiagen). Total RNA was eluted and quantified by absorbance at 260 nm. One μg of total RNA was used to prepare a cDNA library by reverse transcription (High Capacity cDNA Archive Kit, Applied Biosystems). Libraries were diluted 25-fold with water. Real time PCR was performed Taqman 2×PCR buffer (Applied Biosystems) using an Applied Biosystems 7500 thermocycler. Levels of gene expression in the denervated muscle were expressed as fold induction relative to muscle from the sham-denervated leg of animals administered vehicle. […] Fold-induction was determined using the 2^−ΔΔCt method, using expression of 18S RNA as the normalization control. […]

GADD45 = assay: Acute denervation: GADD45 mRNA in EDL and soleus (qPCR); conditions: significant
Procedure: Male Wistar rats weighing 250 gm (Taconic Farms, Germantown, N.Y.) were provided food and water ad libitum and were housed in a temperature and humidity controlled environment providing a 12:12 hour day-night cycle. For surgical procedures, animals were anesthetized with ketamine/xylazine. The left sciatic nerve was exposed by blunt dissection, and a 1 to 2 mm piece of this nerve was excised just below the level of the femoral head. A sham surgery was performed on the right hind limb in which the sciatic nerve was exposed but was not transected. Model 2002 Alzet pumps were implanted subcutaneously on the back. […] A pellet containing 15 mg of testosterone (Innovative Research of America, Sarasota, Fla.) administered as a continuous infusion (5 mg/wk), or a pellet containing placebo, was inserted into a subcutaneous pouch. […]
(§3) Total RNA was extracted from skeletal muscle (20 mg) by homogenization in guanidine thiocyanate using a Polytron followed by extraction using phenol-chloroform (Chomczynski and Sacchi, Anal Biochem 162: 156-159, 1987). […] Total RNA was then eluted and quantified by absorbance at 260 nm. […] Levels of gene expression in the denervated muscle were expressed as fold induction relative to muscle from the sham-denervated leg of animals administered vehicle. […] Fold-induction was determined using the 2^−ΔΔCt method, using expression of 18S RNA as the normalization control. […]

IGF-1 [1] = assay: Chronic denervation: IGF-1 mRNA in gastrocnemius (qPCR)
Procedure: as §1, with “Animals were sacrificed 3, 7 or 28 days after implantation of the miniosmotic pumps by inhalation of carbon dioxide. Gastrocnemius muscles were excised and weighed, then flash frozen on dry ice and stored at −80° C.” left out
as §3, with “extraction of total RNA with” for “extraction using”, “phenol-chloroform as described by” for “phenol-chloroform”, “was” for “was then”

[2] = Chronic denervation: gastrocnemius muscle weights
Procedure: as §1

IGFBP-2 = assay: Chronic denervation: IGFBP-2 mRNA in gastrocnemius (qPCR)
Procedure: as §1, with “Animals were sacrificed 3, 7 or 28 days after implantation of the miniosmotic pumps by inhalation of carbon dioxide. Gastrocnemius muscles were excised and weighed, then flash frozen on dry ice and stored at −80° C.” left out
as §3, with “extraction of total RNA with” for “extraction using”, “phenol-chloroform as described by” for “phenol-chloroform”, “was” for “was then”

MuRF1 = assay: Chronic denervation: MuRF1 mRNA in gastrocnemius (qPCR); conditions: for reduction of MuRF1 expression: denervated muscle
Procedure: as §1, §2

IGF-1 [3] = assay: Acute denervation: IGF-1 mRNA in EDL and soleus (qPCR); conditions: nandrolone 1.5 mg/kg/wk 14 days
Procedure: Male Wistar rats weighing 250 gm (Taconic Farms, Germantown, N.Y.) were provided food and water ad libitum and were housed in a temperature and humidity controlled environment providing a 12:12 hour day-night cycle. For surgical procedures, animals were anesthetized with ketamine/xylazine. The left sciatic nerve was exposed by blunt dissection, and a 1 to 2 mm piece of this nerve was excised just below the level of the femoral head. A sham surgery was performed on the right hind limb in which the sciatic nerve was exposed but was not transected. Model 2002 Alzet pumps were implanted subcutaneously on the back. […] A pellet containing 15 mg of testosterone (Innovative Research of America, Sarasota, Fla.) administered as a continuous infusion (5 mg/wk), or a pellet containing placebo, was inserted into a subcutaneous pouch. […] Because testosterone is known to have anabolic actions (Ferrando et al., Am J Physiol Endocrinol Metab 282: E601-E607, 2002; Mauras et al., J Clin Endocrinol Metab 83: 1886-1892, 1998; Urban et al., Am J Physiol 269: E820-E826, 1995), reductions in levels of this hormone could affect muscle mass and confound interpretation of the results. Animals were euthanized 14 days later by inhalation of carbon dioxide. […]
as §3

myostatin = assay: Chronic denervation: myostatin mRNA in gastrocnemius (qPCR)
Procedure: as §1, with “Animals were sacrificed 3, 7 or 28 days after implantation of the miniosmotic pumps by inhalation of carbon dioxide. Gastrocnemius muscles were excised and weighed, then flash frozen on dry ice and stored at −80° C.” left out
as §3, with “extraction of total RNA with” for “extraction using”, “phenol-chloroform as described by” for “phenol-chloroform”, “was” for “was then”

myogenin [4] = assay: Acute denervation: myogenin mRNA in EDL and soleus (qPCR)
Procedure: Male Wistar rats weighing 250 gm (Taconic Farms, Germantown, N.Y.) were provided food and water ad libitum and were housed in a temperature and humidity controlled environment providing a 12:12 hour day-night cycle. For surgical procedures, animals were anesthetized with ketamine/xylazine. The left sciatic nerve was exposed by blunt dissection, and a 1 to 2 mm piece of this nerve was excised just below the level of the femoral head. A sham surgery was performed on the right hind limb in which the sciatic nerve was exposed but was not transected. Model 2002 Alzet pumps were implanted subcutaneously on the back. […] A pellet containing 15 mg of testosterone (Innovative Research of America, Sarasota, Fla.) administered as a continuous infusion (5 mg/wk), or a pellet containing placebo, was inserted into a subcutaneous pouch. […] Because testosterone is known to have anabolic actions (Ferrando et al., Am J Physiol Endocrinol Metab 282: E601-E607, 2002; Mauras et al., J Clin Endocrinol Metab 83: 1886-1892, 1998; Urban et al., Am J Physiol 269: E820-E826, 1995), reductions in levels of this hormone could affect muscle mass and confound interpretation of the results. Animals were euthanized 14 days later by inhalation of carbon dioxide. Following removal of blood from the left ventricle for determination of serum testosterone concentration by radioimmunoassay (MP Biomedicals, Costa Mesa, Calif.), soleus, extensor digitorum longus (EDL), gastrocnemius and plantaris muscles were excised and weighed, then were flash frozen on dry ice and stored at −80° C.
Total RNA was extracted from skeletal muscle (20 mg) by homogenization in guanidine thiocyanate using a Polytron followed by extraction using phenol-chloroform (Chomczynski and Sacchi, Anal Biochem 162: 156-159, 1987). Total RNA was further enriched using RNAeasy minicolumns (Qiagen, Valencia, Calif.) and treated with RNAse-free DNAse (Qiagen). Total RNA was then eluted and quantified by absorbance at 260 nm. One μg of total RNA was used to prepare a cDNA library by reverse transcription (iScirpt, Biorad, Hercules, Calif.). Libraries were diluted 1:25 with water prior to real time PCR. Real time PCR was conducted using an ABI 7500 real time PCR thermal cycler, ABI 2×PCR reagent, and ABI Taqman real time PCR probes for genes of interest. Levels of gene expression in the denervated muscle were expressed as fold induction relative to muscle from the sham-denervated leg of animals administered vehicle. […] Fold-induction was determined using the 2^−ΔΔCt method, using expression of 18S RNA as the normalization control. Primers and probes used for 18S RNA, MuRF1 and myostatin were obtained through the assays by Design service of Applied Biosystems and had the sequences are shown in Table 2; probes were 5′ labeled with FAM and 3′ modified with a non-fluorescent quencher. All other primer-probe combinations used were those contained in ABI Assay on Demand kits.

junB = assay: Chronic denervation: junB mRNA in gastrocnemius (qPCR)
Procedure: as §1, with “Animals were sacrificed 3, 7 or 28 days after implantation of the miniosmotic pumps by inhalation of carbon dioxide. Gastrocnemius muscles were excised and weighed, then flash frozen on dry ice and stored at −80° C.” left out
as §3, with “extraction of total RNA with” for “extraction using”, “phenol-chloroform as described by” for “phenol-chloroform”, “was” for “was then”

myogenin [5] = assay: Chronic denervation: myogenin mRNA in gastrocnemius (qPCR)
Procedure: as §1
Total RNA was extracted from skeletal muscle (20 mg) by homogenization in guanidine thiocyanate using a Polytron followed by extraction of total RNA with phenol-chloroform as described by (Chomczynski and Sacchi, Anal Biochem 162: 156-159, 1987). Total RNA was further enriched using RNAeasy minicolumns (Qiagen, Valencia, Calif.). This procedure included digestion of contaminating DNA on the column with RNAse-free DNAse (Qiagen). Total RNA was eluted and quantified by absorbance at 260 nm. One μg of total RNA was used to prepare a cDNA library by reverse transcription (High Capacity cDNA Archive Kit, Applied Biosystems). Libraries were diluted 25-fold with water. Real time PCR was performed Taqman 2×PCR buffer (Applied Biosystems) using an Applied Biosystems 7500 thermocycler. Levels of gene expression in the denervated muscle were expressed as fold induction relative to muscle from the sham-denervated leg of animals administered vehicle. […] Fold-induction was determined using the 2^−ΔΔCt method, using expression of 18S RNA as the normalization control. Primers and probes used for 18S RNA, MuRF1 and myostatin were obtained through the assays by Design service of Applied Biosystems and had the sequences are shown in Table 3; probes were 5′ labeled with FAM and 3′ modified with a non-fluorescent quencher. All other primer-probe combinations used were those contained in ABI Assay on Demand kits.

Q: Which MAFbx expression (MAFbx; denervated muscle, 7-days infusion (35 days after denervation)) does the source give for C[C@]12CC[C@H]3[C@@H](CCC4=CC(=O)CC[C@@H]43)[C@@H]1CC[C@@H]2O [nandrolone] here?
A: Its MAFbx expression is “tended to be reduced”.

Q: And the “reduction of MAFbx expression” value (MAFbx; denervated muscle, 28 days administration)?
A: The value was 35%.

Q: And the MAFbx expression (MAFbx; sham-denervated muscle)?
A: Its MAFbx expression is “did not alter”.

Q: What about the “reduction in GADD45 expression” value (GADD45; denervated EDL) of the same compound?
A: The value was 21%.

Q: And the “decrease in GADD45 expression” value (GADD45; denervated soleus)?
A: The value was 40%.

Q: What about the IGF-1 expression (IGF-1 [1]; denervated muscle) of the same compound?
A: The IGF-1 expression was “did not alter”.

Q: What about the IGF-1 expression (IGF-1 [1]; sham-denervated muscle) of the same compound?
A: The IGF-1 expression was “did not alter”.

Q: What about the “weights of denervated muscles versus vehicle” value ([2]; after 3 days of nandrolone (31 days)) of the same compound?
A: The value was “similar”.

Q: What about the “increase in mass of muscles in the normal limb” value ([2]; nandrolone 0.75 mg/kg/wk plus testosterone from day 28, not significant) of the same compound?
A: Its value is 2-5%.

Q: And the IGFBP-2 expression (IGFBP-2; denervated muscle, any time tested)?
A: The IGFBP-2 expression was “did not significantly alter”.

Q: And the IGFBP-2 expression (IGFBP-2; sham-denervated muscle)?
A: The IGFBP-2 expression was “did not appreciably alter”.

Q: And the “reduction of MuRF1 expression” value (MuRF1; 7-days administration)?
A: Its value is 31%.

Q: What about the “reduction of MuRF1 expression” value (MuRF1; 28-days administration) of the same compound?
A: Its value is 37%.

Q: And the MuRF1 expression (MuRF1; muscle of sham-denervated hindlimbs)?
A: The MuRF1 expression was “no effect”.

Q: And the IGF-1 expression (IGF-1 [3]; denervated EDL)?
A: Its IGF-1 expression is “significantly reduced”.

Q: And the IGF-1 expression (IGF-1 [3]; denervated or sham-denervated soleus)?
A: Its IGF-1 expression is “did not significantly affect”.

Q: What about the IGF-1 expression (IGF-1 [3]; sham-denervated EDL) of the same compound?
A: Its IGF-1 expression is “significantly reduced”.

Q: And the myostatin expression (myostatin; denervated muscle, 7 and 28 days administration)?
A: Its myostatin expression is “modest, though significant reduction”.

Q: And the myostatin expression (myostatin; sham-denervated muscle, not significant)?
A: The myostatin expression was “tended to be decreased”.

Q: What about the myogenin expression (myogenin [4]; denervated EDL, not significant) of the same compound?
A: Its myogenin expression is “tended to reduce”.

Q: What about the “myogenin expression as % of that in denervated muscle from placebo animals” value (myogenin [4]; denervated soleus) of the same compound?
A: The value was 70%.

Q: And the “reduction of myogenin expression” value (myogenin [4]; sham-denervated EDL, not significant)?
A: Its value is 50%.

Q: And the “reduction of myogenin expression” value (myogenin [4]; sham-denervated EDL, trend, not significant)?
A: Its value is 27%.

Q: What about the “reduction of myogenin expression” value (myogenin [4]; sham-denervated soleus, did not reach significance) of the same compound?
A: The value was 50%.

Q: And the “reduction of myogenin expression” value (myogenin [4]; sham-denervated soleus, trend, not significant)?
A: Its value is 48%.

Q: What about the junB expression (junB; denervated muscle, 3 to 28 days after starting infusion) of the same compound?
A: Its junB expression is “tended to reduce”.

Q: And the junB expression (junB; sham-denervated muscle)?
A: Its junB expression is “no effect”.

Q: What about the myogenin expression (myogenin [5]; denervated muscle, 3 or 7-days administration) of the same compound?
A: Its myogenin expression is “No effects”.

Q: What about the “fall in myogenin expression” value (myogenin [5]; denervated muscle, 28-days infusion) of the same compound?
A: The value was 32%.

Q: What about the “elevation of myogenin expression” value (myogenin [5]; muscle not stated (contrasted with denervated muscle), day 28 of the infusion) of the same compound?
A: Its value is “approximately 2 fold”.

Q: And the myogenin expression (myogenin [5]; muscle not stated, first 7-days after starting administration)?
A: Its myogenin expression is “did not alter”.
